Data set [1] addresses Na(+)/citrate cotransporter (Homo sapiens, UniProt Q86YT5). In words: Inhibition of recombinant human SLC13A5 in HEK293T cells. Type of data set: cell-based.
The target of data set [2] is T1, Na(+)/dicarboxylate cotransporter 3 (Homo sapiens, UniProt Q8WWT9).
T1 sequence (Q8WWT9 whole entry): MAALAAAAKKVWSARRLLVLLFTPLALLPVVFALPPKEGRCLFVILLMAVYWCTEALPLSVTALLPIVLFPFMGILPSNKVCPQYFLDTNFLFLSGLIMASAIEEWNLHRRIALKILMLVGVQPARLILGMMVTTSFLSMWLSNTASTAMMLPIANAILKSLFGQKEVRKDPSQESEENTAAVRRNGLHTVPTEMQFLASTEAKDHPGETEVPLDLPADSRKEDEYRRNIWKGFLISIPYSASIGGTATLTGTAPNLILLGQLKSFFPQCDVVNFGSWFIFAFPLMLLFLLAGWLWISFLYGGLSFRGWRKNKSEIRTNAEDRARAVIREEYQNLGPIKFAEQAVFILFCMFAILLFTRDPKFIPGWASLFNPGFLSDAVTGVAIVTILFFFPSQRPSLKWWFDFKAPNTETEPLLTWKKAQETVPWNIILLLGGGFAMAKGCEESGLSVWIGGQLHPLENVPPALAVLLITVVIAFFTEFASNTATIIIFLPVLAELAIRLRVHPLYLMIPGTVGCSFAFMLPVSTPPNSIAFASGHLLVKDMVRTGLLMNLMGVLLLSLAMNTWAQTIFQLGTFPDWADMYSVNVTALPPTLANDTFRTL
The experiment in a line: Inhibition of human SLC13A3 in HepG2 cells by measuring […] uptake. Type of data set: cell-based.

The subject of the next data set is HeLa. In words: Antiproliferative activity against human HeLa cells assessed as inhibition of cell growth measured after 24 hrs. Type of data set: functional, cell-based.
The target of data set [3] is T2, ATP-citrate synthase (Homo sapiens, UniProt P53396).
T2 sequence (P53396 whole entry): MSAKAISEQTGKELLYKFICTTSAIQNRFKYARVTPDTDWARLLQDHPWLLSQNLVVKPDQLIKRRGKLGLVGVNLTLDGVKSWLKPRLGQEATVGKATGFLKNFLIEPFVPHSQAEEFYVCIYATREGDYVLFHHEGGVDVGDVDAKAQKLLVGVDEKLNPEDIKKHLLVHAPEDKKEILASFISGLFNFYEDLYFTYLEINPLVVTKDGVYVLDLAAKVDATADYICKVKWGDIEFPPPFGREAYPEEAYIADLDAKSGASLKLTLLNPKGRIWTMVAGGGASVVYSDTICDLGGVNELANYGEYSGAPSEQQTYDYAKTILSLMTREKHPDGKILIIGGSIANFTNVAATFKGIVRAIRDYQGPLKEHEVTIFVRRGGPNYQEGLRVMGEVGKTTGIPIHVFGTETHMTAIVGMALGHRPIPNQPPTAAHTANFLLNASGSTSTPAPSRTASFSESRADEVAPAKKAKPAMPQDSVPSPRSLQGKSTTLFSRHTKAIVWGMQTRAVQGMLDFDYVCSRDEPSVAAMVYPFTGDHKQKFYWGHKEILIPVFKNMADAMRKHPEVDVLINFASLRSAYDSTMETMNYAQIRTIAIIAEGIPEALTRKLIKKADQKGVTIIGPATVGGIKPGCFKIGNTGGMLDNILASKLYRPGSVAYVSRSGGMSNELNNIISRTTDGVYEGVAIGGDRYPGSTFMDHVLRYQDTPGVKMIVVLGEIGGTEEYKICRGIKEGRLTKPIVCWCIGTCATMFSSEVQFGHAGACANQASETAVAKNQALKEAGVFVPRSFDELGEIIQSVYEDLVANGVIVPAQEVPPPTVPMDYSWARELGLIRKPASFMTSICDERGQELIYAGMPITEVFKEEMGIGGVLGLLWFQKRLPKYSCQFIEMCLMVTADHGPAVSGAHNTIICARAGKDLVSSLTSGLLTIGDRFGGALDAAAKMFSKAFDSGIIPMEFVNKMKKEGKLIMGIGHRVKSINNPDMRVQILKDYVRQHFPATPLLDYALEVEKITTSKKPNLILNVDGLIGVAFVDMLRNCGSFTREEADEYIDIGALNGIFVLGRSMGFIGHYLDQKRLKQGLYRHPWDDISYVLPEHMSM
The experiment in a line: Binding affinity to ACLY (unknown origin) assessed as inhibition constant.

In data set [4] the target is T3, Tricarboxylate transport protein, mitochondrial (Homo sapiens, UniProt P53007). The experiment in a line: Inhibition of SLC25A1 (unknown origin) at 1 uM relative to control.
Target sequence in this assay (P53007 14-311 limits assumed): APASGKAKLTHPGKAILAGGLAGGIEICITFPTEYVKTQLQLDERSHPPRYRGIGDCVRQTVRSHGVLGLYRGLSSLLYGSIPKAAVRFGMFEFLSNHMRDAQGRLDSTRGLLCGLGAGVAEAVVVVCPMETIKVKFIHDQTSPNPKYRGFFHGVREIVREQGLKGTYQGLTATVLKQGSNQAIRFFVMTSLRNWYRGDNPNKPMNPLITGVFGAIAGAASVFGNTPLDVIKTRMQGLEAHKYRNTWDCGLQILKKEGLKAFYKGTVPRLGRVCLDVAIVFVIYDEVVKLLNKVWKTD
The target in data set [5] is T3, Tricarboxylate transport protein, mitochondrial. In words: Inhibition of human SLC25A1 at 1 uM relative to control.
Target sequence in this assay (P53007 14-311 limits assumed): as above
Data set [6] has the same target. In words: Binding affinity to human SLC25A1 assessed as inhibition constant.
Target sequence in this assay (P53007 whole entry): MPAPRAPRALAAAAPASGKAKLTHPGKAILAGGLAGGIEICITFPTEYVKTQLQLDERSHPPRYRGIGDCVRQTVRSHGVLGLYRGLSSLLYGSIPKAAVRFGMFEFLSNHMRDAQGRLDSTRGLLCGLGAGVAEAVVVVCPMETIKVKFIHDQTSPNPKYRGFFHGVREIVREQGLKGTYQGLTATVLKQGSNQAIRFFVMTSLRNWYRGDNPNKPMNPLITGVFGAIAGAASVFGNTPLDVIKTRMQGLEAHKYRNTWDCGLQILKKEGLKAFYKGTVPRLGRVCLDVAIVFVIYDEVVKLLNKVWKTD
Data set [7] has as its target T2, ATP-citrate synthase.
Data set [8] addresses T2, ATP-citrate synthase. This is another data set of the same source.
The nature of the next data set: in vitro. Particulars: human, liver microsomes. In general terms: Microsomes from liver hold many membrane-bound enzymes, among them those of drug oxidation.
In data set [9] the target is T4, ATP-citrate synthase (Rattus norvegicus, UniProt P16638).
T4 sequence (P16638 whole entry): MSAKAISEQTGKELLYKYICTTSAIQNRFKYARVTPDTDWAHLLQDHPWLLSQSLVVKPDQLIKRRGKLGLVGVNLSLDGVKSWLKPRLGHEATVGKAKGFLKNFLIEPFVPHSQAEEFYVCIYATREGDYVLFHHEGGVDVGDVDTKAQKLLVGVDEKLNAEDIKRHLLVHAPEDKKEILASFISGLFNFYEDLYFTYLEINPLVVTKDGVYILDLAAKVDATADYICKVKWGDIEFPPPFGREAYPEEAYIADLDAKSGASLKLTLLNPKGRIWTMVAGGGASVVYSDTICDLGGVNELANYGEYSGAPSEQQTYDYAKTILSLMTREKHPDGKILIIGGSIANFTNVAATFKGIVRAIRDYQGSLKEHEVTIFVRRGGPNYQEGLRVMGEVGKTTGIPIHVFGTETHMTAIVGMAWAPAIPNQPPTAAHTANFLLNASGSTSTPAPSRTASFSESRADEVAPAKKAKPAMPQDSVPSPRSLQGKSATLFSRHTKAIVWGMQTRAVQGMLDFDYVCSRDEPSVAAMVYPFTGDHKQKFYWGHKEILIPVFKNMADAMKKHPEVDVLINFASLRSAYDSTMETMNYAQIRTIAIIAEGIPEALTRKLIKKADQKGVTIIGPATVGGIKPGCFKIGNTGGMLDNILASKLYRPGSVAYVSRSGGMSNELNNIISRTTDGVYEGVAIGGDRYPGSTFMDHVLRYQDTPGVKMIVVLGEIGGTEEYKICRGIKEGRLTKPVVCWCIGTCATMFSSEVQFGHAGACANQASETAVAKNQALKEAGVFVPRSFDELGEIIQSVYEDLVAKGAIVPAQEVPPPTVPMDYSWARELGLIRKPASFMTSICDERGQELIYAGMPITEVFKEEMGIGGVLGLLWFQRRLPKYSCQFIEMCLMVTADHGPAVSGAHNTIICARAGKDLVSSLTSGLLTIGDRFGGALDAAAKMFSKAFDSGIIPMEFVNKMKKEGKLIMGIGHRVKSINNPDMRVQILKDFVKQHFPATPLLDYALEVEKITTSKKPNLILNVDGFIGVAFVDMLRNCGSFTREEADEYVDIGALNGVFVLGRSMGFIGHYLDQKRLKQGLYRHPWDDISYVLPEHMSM
The experiment in a line: Binding affinity to rat ACLY assessed as inhibition constant measured after 20 mins.

The nature of data set [10]: Metabolic stability in rat liver microsomes assessed as half life. Type of data set: ADME, Microsome.
Data set [11] addresses T2, ATP-citrate synthase. This is another data set of the same source.
A short description of data set [12]: Inhibition of mouse mINDY in HEK293 cells. Type of data set: cell-based.

The values that follow come from ChEMBL document CHEMBL5346956, “Opportunities and Challenges for Inhibitors Targeting Citrate Transport and Metabolism in Drug Discovery” (J Med Chem, 2023).

Broadly, the IC50 is the concentration needed to halve the response being measured. What is called Ki is a measure of affinity in units of concentration, obtained from inhibition or displacement. One may read the inhibition as the relative decrease from the control value, in per cent. As usually defined, the Kd is a measure of binding affinity in units of concentration. A high value points to weaker binding. Broadly, the half-life is the time needed for the level to fall by half in the phase considered.

Na(+)/citrate cotransporter, sequence (Q86YT5 whole entry): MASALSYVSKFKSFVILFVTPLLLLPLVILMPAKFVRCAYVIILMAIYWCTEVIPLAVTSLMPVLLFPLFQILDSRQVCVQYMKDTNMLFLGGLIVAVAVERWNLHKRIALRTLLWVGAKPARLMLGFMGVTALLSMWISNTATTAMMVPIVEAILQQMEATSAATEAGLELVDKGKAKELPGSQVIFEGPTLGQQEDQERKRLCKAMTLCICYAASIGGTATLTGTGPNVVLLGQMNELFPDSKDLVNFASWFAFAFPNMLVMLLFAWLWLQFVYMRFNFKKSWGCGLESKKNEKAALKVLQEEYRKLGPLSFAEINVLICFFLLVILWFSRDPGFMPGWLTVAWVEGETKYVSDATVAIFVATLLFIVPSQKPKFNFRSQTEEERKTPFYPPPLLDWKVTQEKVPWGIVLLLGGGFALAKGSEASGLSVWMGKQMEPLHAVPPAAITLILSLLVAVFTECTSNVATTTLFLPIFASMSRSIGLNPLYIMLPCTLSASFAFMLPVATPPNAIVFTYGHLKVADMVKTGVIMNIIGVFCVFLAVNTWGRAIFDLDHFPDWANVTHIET

Consider `Cc1nc(OC(F)F)ccc1C(C)N1CCc2c(C#N)c(Cl)nc(NCC#N)c2C1` (stereo unspecified), for which the IC50 in data set [1] and in [2] was below 50 nM in each case. Turning to `O=c1c(O)c(-c2ccc(O)cc2)oc2c(O)c(O)cc(O)c12` [HERBACETIN], the IC50 with HeLa was determined as 500 nM. For `O=C(O)CC(O)(CSCCCCCCc1ccc(Cl)cc1Cl)C(=O)O` (stereo unspecified), at ATP-citrate synthase [3], the Ki turned out to be 1200 nM.

For the compound `O=C(O)c1ccc(Cl)c(S(=O)(=O)Nc2cccc([N+](=O)[O-])c2)c1`, the inhibition in data set [4] and in data set [5] was 84.7% each time. The Ki in [6] came to 48000 nM. Consider `COC(=O)c1cc(Cl)c(O)c(S(=O)(=O)Nc2cc(-c3ccccc3)c(F)cc2F)c1`, for which the Ki on ATP-citrate synthase [3] worked out at 7 nM. This compound also gave a Kd at ATP-citrate synthase [7] of 2.2 nM. The IC50 on ATP-citrate synthase [8] amounted to 2.1 nM. This compound returned a half-life in the data set “in vitro” of 0.056 h. Consider `C[C@@H]1C[C@H]2O[C@@H]2/C=C\C=C\C(=O)Cc2c(Cl)c(O)cc(O)c2C(=O)O1` [RADICICOL], for which, on ATP-citrate synthase [3], the Ki was found to be 13000 nM. The same measure, in the same setting: the figure for `O=C(O)CC(O)(CC(=O)CCCCCCc1ccc(Cl)cc1Cl)C(=O)O` (stereo unspecified) is 1200 nM. On to `O=C(O)C[C@@]1(O)C[C@@H](Cc2ccc(Cl)cc2Cl)OC1=O`, for which the inhibitory constant (Ki) at ATP-citrate synthase [9] came out at 1000 nM. Consider `[2H]C(O)(CCCCCC(C)(C)C(=O)O)CCCCCC(C)(C)C(=O)O`, for which the half-life in [10] was above 2.42 h. In data set [4], `O=C(O)c1cccc(C(=O)O)c1C(=O)O` registered an inhibition of 95%.

For the compound `O=C(O)C[C@](O)(C[C@H](O)CCCCCCc1ccc(Cl)cc1Cl)C(=O)O`, the Ki on ATP-citrate synthase [3] worked out at 1000 nM.

In the case of `[2H]C(O)(CCCCCC(C(=O)O)(C([2H])([2H])[2H])C([2H])([2H])[2H])CCCCCC(C(=O)O)(C([2H])([2H])[2H])C([2H])([2H])[2H]`, the half-life in data set [10] is above 2.42 h. Still for that read-out and setting: the same measure for `[2H]C([2H])(CCCCC(C)(C)C(=O)O)C([2H])(O)C([2H])([2H])CCCCC(C)(C)C(=O)O`: above 2.42 h. With `O=C(O)CC(CSCCCCCCc1ccc(Cl)cc1Cl)C(=O)O` (stereo unspecified), at ATP-citrate synthase [3], the Ki is 1200 nM. As for `[2H]C([2H])(CCCCC(C)(C)C(=O)O)C(O)C([2H])([2H])CCCCC(C)(C)C(=O)O`, in [10], the half-life was above 2.42 h. For the compound `CC(C)(CCCC/C=C/CCCCCC(C)(C)C(=O)O)C(=O)O`, the midpoint of inhibition at ATP-citrate synthase [11], the IC50, lay at 5310 nM. For the compound `O=C(Nc1cc(Cl)cc(C(F)(F)F)c1)OCCC(F)(F)F`, the concentration for half-maximal inhibition (IC50) in data set [2] amounted to 160 nM; in data set [12], 180 nM.

Take `O=C(O)CC(O)(CCCCCCCCc1ccc(Cl)cc1Cl)C(=O)O` (stereo unspecified): at ATP-citrate synthase [3], the inhibition constant (Ki) amounted to 1200 nM. Compound `O=C1NCc2ccccc2-c2cc(c(F)cc2F)NS(=O)(=O)c2cc1cc(Cl)c2O` registered a half-life in “in vitro” of 8.85 h.
